Test results published in patent US9067928B2 (Genentech, Inc., priority 2008, dated 2015).
pEC50, pKi: −log10 of the molar value.

Legend:
Bcl-2 = biological target: T1, Bcl-2 (Homo sapiens, UniProt P10415); experiment: TR-FRET binding assay, competition with F-Bak for Bcl-2 binding site; details: GST-Bcl-2, F-Bak probe
T1 construct: made in house
Protocol: Test compounds were serially diluted in DMSO starting at 50 μM (2× starting concentration; 10% DMSO) and 10 μL transferred into a 384-well plate.
The samples are then mixed on a shaker for 1 minute then incubated for an additional 2 hours at room temperature. For each assay plate, a probe/antibody and protein/antibody/probe mixture were included as a negative and a positive control, respectively. Fluorescence was measured on the Envision (Perkin Elmer) using a 340/35 nm excitation filter and 520/525 (F-Bak) and 495/510 nm (Tb-labeled anti-his antibody) emission filters. Dissociation constants (Ki) were determined using Wang's equation (see, Wang, Z. X. An exact mathematical expression for describing competitive binding of two different ligands to a protein molecule. FEBS Lett. 1995 360:111-114). The TR-FRET assay can be performed in the presence of varying concentrations of human serum (HS) or fetal bovine serum (FBS).
For comparison, the measurement of the competition of compounds of the invention for other Bcl-2 family protein binding sites (e.g., Bcl-2, Mcl-1) using the TR-FRET binding assay was accomplish by substituting GST-Bcl-xL in the TR-FRET assay with other GST-labeled protein, e.g. GST-Bcl-2, GST-Mcl-1 prepared in-house.
For comparison, data (Ki in micromolar) from the measurement of the competition by certain compounds of the invention (i.e., compounds 1, 28, 38, 63, 71, 75, 80, 81, 92 and 94 in Table 1) with F-Bak for the Bcl-2 binding site using the TR-FRET binding assay are, 1.2, 0.15, 0.01, 0.018, 0.50, 0.272, 0.167, 0.66, 0.23 and 0.000003 respectively.

[1] = tested on: Mcl-1-/- mouse embryonic fibroblasts (MEF); experiment: Cell viability assay for Mcl-1-/- mouse embryonic fibroblasts (CellTiter-Glo); format: cell-based; details: Fibroblast, 1% Fetal Bovine Serum, read-out: MEF Mcl-1-/- KO cell viability results (EC50)
Description: a. Cell Viability Assay for Mcl-1^−/− Mouse Embryonic Fibroblasts (MEF):
Neutralization of both […] and Mcl-1 anti-apoptotic proteins in normal cells is required before a cell undergoes apoptosis via the downstream Bax/Bak pathway See, Chen. L. et al. Mol. Cell (2005) 17, 393-403; Willis, S. N. et al. Genes Dev. (2005) 19, 1294-1305. A compound that only targets Bcl-xL should not affect normal cells, but could kill certain cancer cells if they rely more on Bcl-xL and less on other anti-apoptotic proteins, e.g. Mcl-1, for survival. To mirror this, compounds of the invention were tested for its effect on survival of wild type (wt) mouse embryo fibroblasts (MEFs), Bax/Bak double knockout (BB DKO) MEFs, MEFs that expressed Noxa, and MEFs that expressed Bad. Noxa specifically neutralizes Mcl-1. […] MEFs that express Noxa mirror cancer cell types that are reliant on Bcl-xL for survival and should be much more sensitive to killing by a Bcl-xL targeting compound than MEFs where both Bcl-xL and Mcl-1 are protective.
In this assay, Mcl-1^(−/−) cells were used to confirm that cell apoptosis in the presence of BH3 mimetic small molecules was due to predominantly Bcl-xL inactivation. This inactivation leaves Bax/Bak unconstrained and results in apoptosis. The […]-GLO Luminescent Cell Viability Assay is a homogeneous method of determining the number of viable cells in culture based on quantitation of the ATP present. The amount of ATP correlates with the presence of metabolically active cells such that following cell lysis the amount of ATP present is proportional to the amount of luminescence measured.
Mcl-1^(−/−) mouse embryonic fibroblasts (MEFs) are an adherent cell line prepared in house. MEFs were grown in Iwaki 75 cm^2 tissue culture flasks (cat #3123-075) with FMA media which consists of: • 89% DME Kelso • 10% heat-inactivated foetal calf serum (FCS) (Hyclone cat #SH30396.03) • 1% 10 mM asparagine (Fluka cat #11149) • 275 μl of a 1:2000 dilution of 2-mercaptoethanol is added to the final 500 ml volume of FMA (Sigma cat #M7522; diluted in MT-PBS)
FMA was stored at 4° C. and used at 37° C. MEFs were cultured in FMA media and harvested in MT-PBS and trypsin. For MEF cell viability assays, cells were seeded separately in plates with 10% FCS-FMA and 1% FCS-FMA. […]
Automated Systems that can be used in this assay include: 1) Multidrop—The MULTIDROP 384 (ThermoLabsystems) dispenser was used to dispense cells aseptically into the assay plates: 2) MiniTrak—The […] system from Perkin Elmer was used for titration of the compound plates; 3) Zymark—The ZYMARK SCICLONE ALH3000 System with 100 nL pintool head was used for compound addition to the cells; 4) EnVision—The ENVISION plate reader was used to measure the viability via the detection of the luminescence. […]

T1 sequence (P10415 whole entry, species assumed): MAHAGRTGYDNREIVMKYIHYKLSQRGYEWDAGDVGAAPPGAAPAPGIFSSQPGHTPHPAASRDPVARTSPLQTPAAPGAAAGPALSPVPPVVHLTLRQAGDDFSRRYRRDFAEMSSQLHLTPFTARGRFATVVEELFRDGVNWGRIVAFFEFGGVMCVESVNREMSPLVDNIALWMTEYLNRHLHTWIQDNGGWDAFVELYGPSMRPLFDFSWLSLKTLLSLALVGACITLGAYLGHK

O=C(O)c1nc(-c2ccc3c(c2)N(C(=O)Nc2nc4ccccc4s2)CCC3)sc1-c1ccc(-c2ccccc2)cc1 [Example 92, 2-(1-(benzo[d]thiazol-2-ylcarbamoyl)-1,2,3,4-tetrahydroquinolin-7-yl)-5-(biphenyl-4-yl)thiazole-4-carboxylic acid]
pKi (Bcl-2): 6.64
pEC50 [1]: 6.82
